Experiments:
[1] = tested on: influenza virus A/H1N1/pdm09; type: cell-based, influenza virus A/California/07/09/H1N1/pdm09
[2] = tested on: MDCK cells; conditions: dog

| Compound | anti-viral activity (in words) [1] | CD50 [2] [µM] | also measured |
| --- | --- | --- | --- |
| CC1(C)[C@@H](O[C@@H]2O[C@H](C(=O)N[C@@H](CSCc3ccccc3)C(=O)O)[C@@H](O)[C@H](O)[C@H]2O[C@@H]2O[C@H](C(=O)N[C@@H](CSCc3ccccc3)C(=O)O)[C@@H](O)[C@H](O)[C@H]2O)CC[C@]2(C)[C@H]3C(=O)C=C4[C@@H]5C[C@@](C)(C(=O)O)CC[C@]5(C)CC[C@@]4(C)[C@]3(C)CC[C@@H]12 [Compound 11] | – | – | more wide SI values than Rimantadine [1]: 14.2 times |
| CC1(C)[C@@H](O[C@H]2O[C@H](C(=O)O)[C@@H](O)[C@H](O)[C@H]2O[C@@H]2O[C@H](C(=O)O)[C@@H](O)[C@H](O)[C@H]2O)CC[C@]2(C)[C@H]3C(=O)C=C4[C@@H]5C[C@@](C)(C(=O)O)CC[C@]5(C)CC[C@@]4(C)[C@]3(C)CC[C@@H]12 [Compound 1, Glycyrrhizic acid] | did not show anti-viral activity | 364.6 | – |
| 18α-GL [Compound 15] | week anti-viral activity | – | EC50 [1]: 15.2 µM; SI [1]: 3; more toxic to cells than natural glycoside 1 [2]: 7.7 times |
| CC1(C)[C@@H](O[C@@H]2O[C@H](C(=O)N[C@@H](CCCCNC(=O)OCc3ccccc3)C(=O)O)[C@@H](O)[C@H](O)[C@H]2O[C@@H]2O[C@H](C(=O)N[C@@H](CCCCNC(=O)OCc3ccccc3)C(=O)O)[C@@H](O)[C@H](O)[C@H]2O)CC[C@]2(C)[C@H]3C(=O)C=C4[C@@H]5C[C@@](C)(C(=O)O)CC[C@]5(C)CC[C@@]4(C)[C@]3(C)CC[C@@H]12 [Compound 13] | slightly increased antiviral activity | – | – |
| COC(=O)[C@H](Cc1ccccc1)NC(=O)[C@H]1O[C@@H](O[C@H]2[C@H](O[C@H]3CC[C@]4(C)[C@H]5C(=O)C=C6[C@@H]7C[C@@](C)(C(=O)O)CC[C@]7(C)CC[C@@]6(C)[C@]5(C)CC[C@H]4C3(C)C)O[C@H](C(=O)N[C@@H](Cc3ccccc3)C(=O)OC)[C@@H](O)[C@@H]2O)[C@H](O)[C@@H](O)[C@@H]1O [Compound 5] | – | – | more wide SI values than Rimantadine [1]: 12.2 times |
| COC(=O)C[C@H](NC(=O)[C@H]1O[C@@H](O[C@H]2[C@H](O[C@H]3CC[C@]4(C)[C@H]5C(=O)C=C6[C@@H]7C[C@@](C)(C(=O)O)CC[C@]7(C)CC[C@@]6(C)[C@]5(C)CC[C@H]4C3(C)C)O[C@H](C(=O)N[C@@H](CC(=O)OC)C(=O)OC)[C@@H](O)[C@@H]2O)[C@H](O)[C@@H](O)[C@@H]1O)C(=O)OC [Compound 9] | does not confer virus-inhibiting properties | 37.3 | – |
| CC1(C)[C@@H](O[C@@H]2O[C@H](C(=O)O)[C@@H](O)[C@H](O)[C@H]2O[C@@H]2O[C@H](C(=O)O)[C@@H](O)[C@H](O)[C@H]2O)CC[C@]2(C)C3=CC=C4[C@@H]5C[C@@](C)(C(=O)O)CC[C@]5(C)CC[C@@]4(C)[C@]3(C)CC[C@@H]12 [Compound 19] | moderate | – | more toxic to cells than natural glycoside 1 [2]: 17 times |
| COC(=O)C[C@H](NC(=O)[C@H]1O[C@@H](O[C@H]2[C@H](O[C@H]3CC[C@]4(C)[C@H]5C(=O)C=C6[C@H]7C[C@@](C)(C(=O)O)CC[C@]7(C)CC[C@@]6(C)[C@]5(C)CC[C@H]4C3(C)C)O[C@H](C(=O)N[C@@H](CC(=O)OC)C(=O)OC)[C@@H](O)[C@@H]2O)[C@H](O)[C@@H](O)[C@@H]1O)C(=O)OC [Compound 16] | – | 38.0 | – |
